Data from article PMC3447978, “High-Throughput 1,536-Well Fluorescence Polarization Assays for α1-Acid Glycoprotein and Human Serum Albumin Binding” (PLoS ONE, 2012).

The molecules below were run against AGP protein-coated beads (Homo sapiens, UniProt P02763) (assay: in vitro). Conditions: protein-coated bead Kd values.
Description: (§1) This system features the proteins of interest covalently bound to the surface of silica beads through the use of proprietary attachment chemistry. The surface was designed to minimize interactions with drug molecules, thus preventing non-specific binding of test substances.
(§2) AGP or HSA protein-coated beads (Sovicell, Leipzig, Germany; distributed by ADMEcell, Emeryville, CA) were thawed at room temperature for two hours. Stock solutions of each compound were diluted to a final sample concentration of 20 µM or 50 µM. Samples (45 µL) were added to 405 µL of premixed solutions of buffer and AGP or HSA coated beads and mixed thoroughly to keep the beads suspended in solution to allow for the compounds to bind to the protein coated beads, [30]. After centrifuging, 100 µL of supernatant were transferred to a 96-well plate and analyzed on an Agilent 1100 HPLC coupled to a diode array detector.
(§3) After equilibrating the column with 50 mM ammonium acetate buffer/acetonitrile (99%/1%) at a flow rate of 500 µL/min for ∼2 minutes, compounds were detected by initiating a five minute gradient to 100% acetonitrile, held for 3 minutes, followed by a one minute gradient to 1% acetonitrile, where the composition was then maintained for the final three minutes, for a total run time of 12 minutes. The diode array detector channels were set to 230 nm, 260 nm, 300 nm, and 340 nm (bandwidth = 5 nm). Data were evaluated using the Sovicell-supplied Microsoft Excel (Redmond, WA) spreadsheets, [44].

AGP protein-coated beads, sequence (P02763 19-201): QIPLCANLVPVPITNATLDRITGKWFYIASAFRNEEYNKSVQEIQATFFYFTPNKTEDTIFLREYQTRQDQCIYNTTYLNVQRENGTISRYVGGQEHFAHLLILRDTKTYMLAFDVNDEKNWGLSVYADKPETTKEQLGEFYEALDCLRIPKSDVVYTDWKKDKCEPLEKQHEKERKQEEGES

Row | SMILES | Ratio (HSA Kd / AGP Kd)
1 | CN(C)CCC=C1c2ccccc2CCc2ccccc21 [Amitriptyline, amitriptyline] | 63
2 | CN(C)CCCN1c2ccccc2CCc2ccccc21 [Imipramine, imipramine] | 14
3 | CC(C)NCC(O)COc1cccc2ccccc12 (centres unmarked) [Propranolol, propranolol] | 29

What follows are molecules tested against T1, α1-acid glycoprotein (AGP) (Homo sapiens, UniProt P02763) (assay: in vitro). Conditions: human.
T1 sequence (P02763 19-201): as above
Description: as §1, §2, §3

Row | SMILES | Kd at 2 min, 50 µM [µM]
4 | C=CCc1ccccc1OCC(O)CNC(C)C (centres unmarked) [Alprenolol, alprenolol] | 33.8
5 | CN(C)CCC=C1c2ccccc2CCc2ccccc21 [Amitriptyline, amitriptyline] | 1.89
6 | CN(C)CCCN1c2ccccc2Sc2ccc(Cl)cc21 [Chlorpromazine, chlorpromazine] | 7.68
7 | CN(C)CCCN1c2ccccc2CCc2ccccc21 [Imipramine, imipramine] | 10.4
8 | COc1ccc2c(c1)c(CC(=O)O)c(C)n2C(=O)c1ccc(Cl)cc1 [Indomethacin, indomethacin] | 78.8
9 | CCCCC1C(=O)N(c2ccccc2)N(c2ccccc2)C1=O [Phenylbutazone, phenylbutazone] | 247
10 | CC(C)NCC(O)COc1cccc2ccccc12 (centres unmarked) [Propranolol, propranolol] | 19.2

Each molecule was assayed against HSA protein-coated beads (Homo sapiens, UniProt P02768) (assay: HSA protein-coated bead assay with HPLC analysis). Conditions: compound 50 µM.
HSA protein-coated beads, sequence (P02768 25-609): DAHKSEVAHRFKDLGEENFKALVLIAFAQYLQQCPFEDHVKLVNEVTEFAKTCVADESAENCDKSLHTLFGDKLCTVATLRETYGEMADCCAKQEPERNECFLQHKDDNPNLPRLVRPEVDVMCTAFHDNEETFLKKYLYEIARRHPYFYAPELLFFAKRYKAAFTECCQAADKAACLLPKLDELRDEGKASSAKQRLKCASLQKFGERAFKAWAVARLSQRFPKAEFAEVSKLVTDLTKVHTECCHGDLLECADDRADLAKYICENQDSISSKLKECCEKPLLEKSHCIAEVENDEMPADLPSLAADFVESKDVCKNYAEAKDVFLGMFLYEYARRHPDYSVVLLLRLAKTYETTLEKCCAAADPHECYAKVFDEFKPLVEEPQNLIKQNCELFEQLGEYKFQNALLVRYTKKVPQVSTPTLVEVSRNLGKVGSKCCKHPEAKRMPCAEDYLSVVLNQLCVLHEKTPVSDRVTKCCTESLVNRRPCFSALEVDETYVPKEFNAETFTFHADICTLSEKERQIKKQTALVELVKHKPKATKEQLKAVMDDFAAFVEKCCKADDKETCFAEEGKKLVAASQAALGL
Type: binding
Description: as §1, §2, §3

Row | SMILES | HSA Kd | Kd [µM]
11 | C=CCc1ccccc1OCC(O)CNC(C)C (centres unmarked) [Alprenolol, alprenolol] | apparent inability to bind to the HSA protein coated beads | –
12 | CN(C)CCC=C1c2ccccc2CCc2ccccc21 [Amitriptyline, amitriptyline] | – | 119
13 | OCCN(CCO)c1nc(N2CCCCC2)c2nc(N(CCO)CCO)nc(N3CCCCC3)c2n1 [Dipyridamole, dipyridamole] | – | 35.6
14 | CN(C)CCCN1c2ccccc2CCc2ccccc21 [Imipramine, imipramine] | – | 149
15 | CC(C)NCC(O)COc1cccc2ccccc12 (centres unmarked) [Propranolol, propranolol] | – | 548

What follows are molecules tested against T2, human serum albumin (HSA) (Homo sapiens, UniProt P02768) (assay: in vitro). Conditions: not given.
T2 sequence (P02768 25-609): as above

Row | SMILES | IC50 [µM]
16 | COc1ccc(C(CN(C)C)C2(O)CCCCC2)cc1 (centres unmarked) [Venlafaxine, venlafaxine] | > 151

Same assay, conditions: probe dansyl sarcosine

Row | SMILES | IC50 [µM]
17 | O=C1N(c2ccccc2)c2ccccc2C1(Cc1ccncc1)Cc1ccncc1 [Linopirdine, linopirdine] | > 151
18 | CC#C[C@]1(O)CC[C@H]2[C@@H]3CCC4=CC(=O)CCC4=C3[C@@H](c3ccc(N(C)C)cc3)C[C@@]21C [Mifepristone, mifepristone] | > 151
19 | CCC(C)N(C)C(=O)c1cc2ccccc2c(-c2ccccc2Cl)n1 (centres unmarked) [PK 11195] | > 151

Each molecule was assayed against T1, α1-acid glycoprotein (AGP) (assay: biochemical). Conditions: not given.

Row | SMILES | IC50 [µM]
20 | Nc1ccc2c3c(cccc13)C(=O)NC2=O [4-Amino-1,8-naphthalimide, 4-amino-1,8-naphthalimide] | 832
21 | C=CCc1ccccc1OCC(O)CNC(C)C (centres unmarked) [Alprenolol, alprenolol] | 273
22 | Nc1nc(N)c2nc(CNc3ccc(C(=O)N[C@@H](CCC(=O)O)C(=O)O)cc3)cnc2n1 [Aminopterin, aminopterin] | 306
23 | CN(C)CCC=C1c2ccccc2CCc2ccccc21 [Amitriptyline, amitriptyline] | 224
24 | CCCC(=O)NCCc1c2n(c3ccc(OC)cc13)CCCc1ccccc1-2 [K 185] | 10.5
25 | COc1cc2nc(N3CCN(C(=O)OCc4ccccc4)C(C(=O)NC(C)(C)C)C3)nc(N)c2cc1OC [L-765,314] | 2.03
26 | O=C1N(c2ccccc2)c2ccccc2C1(Cc1ccncc1)Cc1ccncc1 [Linopirdine, linopirdine] | 21.7
27 | CC#C[C@]1(O)CC[C@H]2[C@@H]3CCC4=CC(=O)CCC4=C3[C@@H](c3ccc(N(C)C)cc3)C[C@@]21C [Mifepristone, mifepristone] | 2.51
28 | CCC(C)N(C)C(=O)c1cc2ccccc2c(-c2ccccc2Cl)n1 (centres unmarked) [PK 11195] | 23.9
29 | CCCCC1C(=O)N(c2ccccc2)N(c2ccccc2)C1=O [Phenylbutazone, phenylbutazone] | > 1000
30 | COc1ccc(C(CN(C)C)C2(O)CCCCC2)cc1 (centres unmarked) [Venlafaxine, venlafaxine] | > 1000
31 | OCc1ccc(-c2nn(Cc3ccccc3)c3ccccc23)o1 [YC-1] | 4.83

Molecular target: T1, α1-acid glycoprotein (AGP)
Experiment: biochemical
Conditions: not given
Remark: another data set of the same source

Row | SMILES | IC50 [µM]
32 | C=CCc1ccccc1OCC(O)CNC(C)C (centres unmarked) [Alprenolol, alprenolol] | 276
33 | CN(C)CCC=C1c2ccccc2CCc2ccccc21 [Amitriptyline, amitriptyline] | 221
34 | CCCCC1C(=O)N(c2ccccc2)N(c2ccccc2)C1=O [Phenylbutazone, phenylbutazone] | 1050

The molecules below were run against T2, human serum albumin (HSA) (assay: biochemical). Conditions: not given.

Row | SMILES | IC50 [µM]
35 | Nc1ccc2c3c(cccc13)C(=O)NC2=O [4-Amino-1,8-naphthalimide, 4-amino-1,8-naphthalimide] | 7.94
36 | Nc1nc(N)c2nc(CNc3ccc(C(=O)N[C@@H](CCC(=O)O)C(=O)O)cc3)cnc2n1 [Aminopterin, aminopterin] | 8.91
37 | OCCN(CCO)c1nc(N2CCCCC2)c2nc(N(CCO)CCO)nc(N3CCCCC3)c2n1 [Dipyridamole, dipyridamole] | 40
38 | CN(C)c1cc2c(Nc3ccc4c(cnn4Cc4ccccc4)c3)ncnc2cn1 [GW2974] | 7.94
39 | CCCC(=O)NCCc1c2n(c3ccc(OC)cc13)CCCc1ccccc1-2 [K 185] | 56.2
40 | COc1cc2nc(N3CCN(C(=O)OCc4ccccc4)C(C(=O)NC(C)(C)C)C3)nc(N)c2cc1OC [L-765,314] | 70.8
41 | OCc1ccc(-c2nn(Cc3ccccc3)c3ccccc23)o1 [YC-1] | 44.7

Each molecule was assayed against T1, α1-acid glycoprotein (AGP) (assay: AGP LOPAC1280 1,536-well qHTS screen (FP)). Conditions: not given.

Row | SMILES | IC50 [µM]
42 | Nc1nc(N)c2nc(CNc3ccc(C(=O)N[C@@H](CCC(=O)O)C(=O)O)cc3)cnc2n1 [Aminopterin, aminopterin] | 56.2
43 | CN(C)c1cc2c(Nc3ccc4c(cnn4Cc4ccccc4)c3)ncnc2cn1 [GW2974] | > 144
44 | CCCC(=O)NCCc1c2n(c3ccc(OC)cc13)CCCc1ccccc1-2 [K 185] | 20
45 | COc1cc2nc(N3CCN(C(=O)OCc4ccccc4)C(C(=O)NC(C)(C)C)C3)nc(N)c2cc1OC [L-765,314] | 14.1
46 | O=C1N(c2ccccc2)c2ccccc2C1(Cc1ccncc1)Cc1ccncc1 [Linopirdine, linopirdine] | 35.5
47 | CCC(C)N(C)C(=O)c1cc2ccccc2c(-c2ccccc2Cl)n1 (centres unmarked) [PK 11195] | 22.4
48 | COc1ccc(C(CN(C)C)C2(O)CCCCC2)cc1 (centres unmarked) [Venlafaxine, venlafaxine] | > 144

Same assay, conditions: AGP 1,536-well Screen IC50, LOPAC1280 screen; top compound concentration 144 µM

Row | SMILES | IC50 [µM]
49 | Nc1ccc2c3c(cccc13)C(=O)NC2=O [4-Amino-1,8-naphthalimide, 4-amino-1,8-naphthalimide] | 11.2
50 | CC#C[C@]1(O)CC[C@H]2[C@@H]3CCC4=CC(=O)CCC4=C3[C@@H](c3ccc(N(C)C)cc3)C[C@@]21C [Mifepristone, mifepristone] | 6.31
51 | OCc1ccc(-c2nn(Cc3ccccc3)c3ccccc23)o1 [YC-1] | 5.62

Same assay, conditions: IC50 in AGP LOPAC1280 screen, validation set members present in the LOPAC1280 collection

Row | SMILES | IC50 [µM]
52 | CN(C)CCCN1c2ccccc2Sc2ccc(Cl)cc21 [Chlorpromazine, chlorpromazine] | 44.7
53 | CC(C)NCC(O)COc1cccc2ccccc12 (centres unmarked) [Propranolol, propranolol] | 50.1

Same assay, conditions: average IC50, intraplate control, AGP screen, LOPAC1280 screen intraplate control

Row | SMILES | IC50 [µM]
54 | CC(C)NCC(O)COc1cccc2ccccc12 (centres unmarked) [Propranolol, propranolol] | 48.7

Each molecule was assayed against T2, human serum albumin (HSA) (assay: HSA 96-well fluorescence polarization displacement assay (dansyl sarcosine probe, Sudlow Site II)). Conditions: not given.

Row | SMILES | IC50 [µM]
55 | Nc1ccc2c3c(cccc13)C(=O)NC2=O [4-Amino-1,8-naphthalimide, 4-amino-1,8-naphthalimide] | 37
56 | C=CCc1ccccc1OCC(O)CNC(C)C (centres unmarked) [Alprenolol, alprenolol] | 1700
57 | Nc1nc(N)c2nc(CNc3ccc(C(=O)N[C@@H](CCC(=O)O)C(=O)O)cc3)cnc2n1 [Aminopterin, aminopterin] | 22
58 | CN(C)CCC=C1c2ccccc2CCc2ccccc21 [Amitriptyline, amitriptyline] | 6750
59 | OCCN(CCO)c1nc(N2CCCCC2)c2nc(N(CCO)CCO)nc(N3CCCCC3)c2n1 [Dipyridamole, dipyridamole] | 62.2
60 | CN(C)c1cc2c(Nc3ccc4c(cnn4Cc4ccccc4)c3)ncnc2cn1 [GW2974] | 4.65
61 | CN(C)CCCN1c2ccccc2CCc2ccccc21 [Imipramine, imipramine] | 5200
62 | CCCC(=O)NCCc1c2n(c3ccc(OC)cc13)CCCc1ccccc1-2 [K 185] | 83.2
63 | COc1cc2nc(N3CCN(C(=O)OCc4ccccc4)C(C(=O)NC(C)(C)C)C3)nc(N)c2cc1OC [L-765,314] | 5.21
64 | CC(C)NCC(O)COc1cccc2ccccc12 (centres unmarked) [Propranolol, propranolol] | 5330
65 | COc1ccc(C(CN(C)C)C2(O)CCCCC2)cc1 (centres unmarked) [Venlafaxine, venlafaxine] | > 1000
66 | OCc1ccc(-c2nn(Cc3ccccc3)c3ccccc23)o1 [YC-1] | 5.07

What follows are molecules tested against T2, human serum albumin (HSA) (assay: HSA 1,536-well fluorescence polarization displacement assay (dansyl sarcosine probe, Sudlow Site II)). Conditions: read-out: HSA 1,536-well IC50.
Type: binding
Design: Albumin solution from human serum (HSA, Sigma-Aldrich, St. Louis, MO); purchased Sigma-Aldrich; host or cells: human serum
Description: For 1,536-well format (Table 2), a 3 µL mixture of HSA and dansyl sarcosine (bound control) or 3 µL of dansyl sarcosine (unbound control) were dispensed into a 1,536-well assay plate using a BioRAPTR. The plate was centrifuged at 1,000 rpm for 15 seconds, covered and incubated for 10 minutes, and FP data were collected on a ViewLux using the optics described above.
FP was measured 15 min after compound addition. Percent inhibition was derived from the bound (i.e., protein-probe complex), or 0% neutral control, and the unbound (i.e., free probe), or 100% displaced control, respectively, by calculating their mean values, and normalizing the data using GraphPad Prism 4.

Row | SMILES | IC50 [mM]
67 | C=CCc1ccccc1OCC(O)CNC(C)C (centres unmarked) [Alprenolol, alprenolol] | > 1.51
68 | CN(C)CCC=C1c2ccccc2CCc2ccccc21 [Amitriptyline, amitriptyline] | > 1.51
69 | OCCN(CCO)c1nc(N2CCCCC2)c2nc(N(CCO)CCO)nc(N3CCCCC3)c2n1 [Dipyridamole, dipyridamole] | > 1.51

Same assay, conditions: read-out: HSA 1,536-well IC50 (extrapolated)

Row | SMILES | IC50 [mM]
70 | CN(C)CCCN1c2ccccc2CCc2ccccc21 [Imipramine, imipramine] | > 1.51
71 | CC(C)NCC(O)COc1cccc2ccccc12 (centres unmarked) [Propranolol, propranolol] | > 1.51
